Source: PMC5218480 (PLoS ONE, 2017)

Test system: MV-4-11 cells
Assay: Gene expression microarray analysis (Affymetrix PrimeView) and GSEA
Format: cell-based, human
Parameters: RFU PODN (11730768_x_at) / Fold change /veh PODN (11730768_x_at) / RFU LINC00158 (11744669_a_at) / Fold change /veh LINC00158 (11744669_a_at) / RFU DUSP10 (11751237_a_at) / Fold change /veh DUSP10 (11751237_a_at) / RFU ID3 (11757404_x_at) / Fold change /veh ID3 (11757404_x_at) / RFU PLEKHG5 (11737974_s_at) / Fold change /veh PLEKHG5 (11737974_s_at) / RFU LRRC4B (11730491_at) / Fold change /veh LRRC4B (11730491_at) / RFU GIMAP4 (11747438_a_at) / Fold change /veh GIMAP4 (11747438_a_at) / RFU KRT8 (11758183_x_at) / Fold change /veh KRT8 (11758183_x_at) / RFU CNN1 (11734310_a_at) / Fold change /veh CNN1 (11734310_a_at) / RFU VPS37D (11726825_at) / Fold change /veh VPS37D (11726825_at) / RFU C10orf10 (11716522_x_at) / Fold change /veh C10orf10 (11716522_x_at) / RFU KIR2DL2 /// KIR2DL4 /// KIR2DL5A /// KIR2DL5B /// KIR2DS1 /// KIR2DS2 /// KIR2DS3 /// KIR2DS4 /// KIR3DL3 /// KIR3DL3 /// KIR3DS1 (11738374_at) / Fold change /veh KIR2DL2 /// KIR2DL4 /// KIR2DL5A /// KIR2DL5B /// KIR2DS1 /// KIR2DS2 /// KIR2DS3 /// KIR2DS4 /// KIR3DL3 /// KIR3DL3 /// KIR3DS1 (11738374_at) / RFU C1QL1 (11718748_at) / Fold change /veh C1QL1 (11718748_at) / RFU TMPRSS4 (11747572_a_at) / Fold change /veh TMPRSS4 (11747572_a_at) / RFU HAMP (11756126_x_at) / Fold change /veh HAMP (11756126_x_at) / RFU RNFT2 (11725882_a_at) / Fold change /veh RNFT2 (11725882_a_at) / RFU NR4A2 (11747474_a_at) / Fold change /veh NR4A2 (11747474_a_at) / RFU ABCC12 (11746883_a_at) / Fold change /veh ABCC12 (11746883_a_at) / RFU TMEM136 (11760407_x_at) / Fold change /veh TMEM136 (11760407_x_at) / RFU CLDN22 /// WWC2 (11732394_at) / Fold change /veh CLDN22 /// WWC2 (11732394_at) / RFU HLA-DPB1 (11760878_x_at) / Fold change /veh HLA-DPB1 (11760878_x_at) / RFU SPINT1 (11716480_a_at) / Fold change /veh SPINT1 (11716480_a_at) / RFU GAP43 (11754022_s_at) / Fold change /veh GAP43 (11754022_s_at) / RFU A4GNT (11735810_at) / Fold change /veh A4GNT (11735810_at) / RFU PRB3 (11715151_x_at) / Fold change /veh PRB3 (11715151_x_at) / RFU TUBB4B (11761932_at) / Fold change /veh TUBB4B (11761932_at) / RFU CAPN14 (11732068_a_at) / Fold change /veh CAPN14 (11732068_a_at) / RFU TMCC2 (11721928_a_at) / Fold change /veh TMCC2 (11721928_a_at) / RFU IRGQ (11745062_a_at) / Fold change /veh IRGQ (11745062_a_at) / RFU FAM174B (11720279_a_at) / Fold change /veh FAM174B (11720279_a_at) / RFU TMPRSS4 (11748680_a_at) / Fold change /veh TMPRSS4 (11748680_a_at) / RFU FAM212B (11763350_a_at) / Fold change /veh FAM212B (11763350_a_at) / RFU PLEKHG5 (11743358_a_at) / Fold change /veh PLEKHG5 (11743358_a_at) / RFU ZSCAN30 (11745921_a_at) / Fold change /veh ZSCAN30 (11745921_a_at) / RFU CMKLR1 (11741424_a_at) / Fold change /veh CMKLR1 (11741424_a_at) / RFU LOC101060620 /// MAPK8IP1 (11723275_at) / Fold change /veh LOC101060620 /// MAPK8IP1 (11723275_at) / RFU SPTSSB (11747773_x_at) / Fold change /veh SPTSSB (11747773_x_at) / RFU PRSS12 (11739890_at) / Fold change /veh PRSS12 (11739890_at) / RFU BIN1 (11741810_x_at) / Fold change /veh BIN1 (11741810_x_at) / RFU WNT11 (11732464_a_at) / Fold change /veh WNT11 (11732464_a_at) / RFU C10orf10 (11716521_a_at) / Fold change /veh C10orf10 (11716521_a_at) / RFU C5orf56 (11738089_at) / Fold change /veh C5orf56 (11738089_at) / RFU CYB561 (11721691_x_at) / Fold change /veh CYB561 (11721691_x_at) / RFU ANKRD19P (11752326_a_at) / Fold change /veh ANKRD19P (11752326_a_at) / RFU OR2T12 /// OR2T33 /// OR2T8 (11738714_s_at) / Fold change /veh OR2T12 /// OR2T33 /// OR2T8 (11738714_s_at) / RFU VCAN (11748164_a_at) / Fold change /veh VCAN (11748164_a_at) / RFU JSRP1 (11732532_at) / Fold change /veh JSRP1 (11732532_at) / RFU KRTAP10-11 (11738290_x_at) / Fold change /veh KRTAP10-11 (11738290_x_at) / RFU MYO3A (11730013_a_at) / Fold change /veh MYO3A (11730013_a_at) / RFU EBF3 (11725865_a_at) / Fold change /veh EBF3 (11725865_a_at) / RFU CAMK2N1 (11719241_x_at) / Fold change /veh CAMK2N1 (11719241_x_at) / RFU C5orf56 (11738088_a_at) / Fold change /veh C5orf56 (11738088_a_at) / RFU OLFML3 (11715873_a_at) / Fold change /veh OLFML3 (11715873_a_at) / RFU LOC100653217 /// NTM (11731650_a_at) / Fold change /veh LOC100653217 /// NTM (11731650_a_at) / RFU MAPK11 (11762145_a_at) / Fold change /veh MAPK11 (11762145_a_at) / RFU FIZ1 (11724087_x_at) / Fold change /veh FIZ1 (11724087_x_at) / RFU OASL (11726364_x_at) / Fold change /veh OASL (11726364_x_at) / RFU SOX15 (11748057_x_at) / Fold change /veh SOX15 (11748057_x_at) / RFU CD79A (11719716_a_at) / Fold change /veh CD79A (11719716_a_at) / RFU HIST1H1D (11736915_at) / Fold change /veh HIST1H1D (11736915_at) / RFU CASKIN2 (11723855_a_at) / Fold change /veh CASKIN2 (11723855_a_at) / RFU LOC730098 (11760151_x_at) / Fold change /veh LOC730098 (11760151_x_at) / RFU OR4N2 (11742367_at) / Fold change /veh OR4N2 (11742367_at) / RFU PRRT2 (11749266_a_at) / Fold change /veh PRRT2 (11749266_a_at) / RFU SNX32 (11753110_a_at) / Fold change /veh SNX32 (11753110_a_at) / RFU CDHR5 (11726645_a_at) / Fold change /veh CDHR5 (11726645_a_at) / RFU RCAN1 (11760418_a_at) / Fold change /veh RCAN1 (11760418_a_at) / RFU FAM167A (11723789_a_at) / Fold change /veh FAM167A (11723789_a_at) / RFU FAM26E (11764081_at) / Fold change /veh FAM26E (11764081_at) / RFU ISYNA1 (11749810_s_at) / Fold change /veh ISYNA1 (11749810_s_at) / RFU ACY1 (11761880_at) / Fold change /veh ACY1 (11761880_at) / RFU 11764098_at / Fold change /veh 11764098_at / RFU SAMD14 (11745864_x_at) / Fold change /veh SAMD14 (11745864_x_at) / RFU NPB (11741838_a_at) / Fold change /veh NPB (11741838_a_at) / RFU TMPRSS6 (11731388_a_at) / Fold change /veh TMPRSS6 (11731388_a_at) / RFU KRTAP10-2 (11738614_at) / Fold change /veh KRTAP10-2 (11738614_at) / RFU ARHGAP8 /// PRR5-ARHGAP8 (11727945_x_at) / Fold change /veh ARHGAP8 /// PRR5-ARHGAP8 (11727945_x_at) / RFU KRTAP5-7 /// NADSYN1 (11734609_at) / Fold change /veh KRTAP5-7 /// NADSYN1 (11734609_at) / RFU RASL12 (11751679_a_at) / Fold change /veh RASL12 (11751679_a_at) / RFU CDKN2B (11736163_a_at) / Fold change /veh CDKN2B (11736163_a_at) / RFU PRF1 (11729649_at) / Fold change /veh PRF1 (11729649_at) / RFU, ZNF638 /// ZNF638-IT1 / Fold change vs veh, ZNF638 /// ZNF638-IT1 / RFU, PANK3 / Fold change vs veh, PANK3 / RFU, SH3YL1 / Fold change vs veh, SH3YL1 / RFU, ZEB2 / Fold change vs veh, ZEB2 / RFU, NRIP1 / Fold change vs veh, NRIP1 / RFU, PTTG1IP / Fold change vs veh, PTTG1IP / RFU, CAPN2 / Fold change vs veh, CAPN2 / RFU, MED14 / Fold change vs veh, MED14 / RFU, SNORA58 / Fold change vs veh, SNORA58 / RFU, C1orf63 / Fold change vs veh, C1orf63 / RFU, LRRFIP1 / Fold change vs veh, LRRFIP1 / RFU, NDUFAF7 / Fold change vs veh, NDUFAF7 / RFU, SLC12A2 / Fold change vs veh, SLC12A2 / RFU, IBTK / Fold change vs veh, IBTK / RFU, ESF1 / Fold change vs veh, ESF1 / Fold change vs veh, TMEM50B / RFU, TAOK1 / Fold change vs veh, TAOK1 / RFU, ACBD3 / Fold change vs veh, ACBD3 / RFU, TMA16 / Fold change vs veh, TMA16 / RFU, RWDD3 / Fold change vs veh, RWDD3 / RFU, BCAT1 / Fold change vs veh, BCAT1 / RFU, EDEM3 / Fold change vs veh, EDEM3 / RFU, TMEM33 / Fold change vs veh, TMEM33 / RFU, WDR75 / Fold change vs veh, WDR75 / RFU, AHCTF1 / Fold change vs veh, AHCTF1 / RFU, TFRC / Fold change vs veh, TFRC / RFU, ZDHHC17 / Fold change vs veh, ZDHHC17 / RFU, NOM1 / Fold change vs veh, NOM1 / RFU, ARL8B / Fold change vs veh, ARL8B / RFU, ZBTB11 / Fold change vs veh, ZBTB11 / RFU, TAMM41 / Fold change vs veh, TAMM41 / RFU, KIAA1704 /// LOC100996395 / Fold change vs veh, KIAA1704 /// LOC100996395 / RFU, ING1 / Fold change vs veh, ING1 / RFU, TRMT61B / Fold change vs veh, TRMT61B / RFU, FUBP3 / Fold change vs veh, FUBP3 / RFU, TP53 / Fold change vs veh, TP53 / RFU, TNKS2 / Fold change vs veh, TNKS2 / RFU, ZFP14 / Fold change vs veh, ZFP14 / RFU, ACTR2 / Fold change vs veh, ACTR2 / RFU, PPP3R1 / Fold change vs veh, PPP3R1 / RFU, PIK3R1 / Fold change vs veh, PIK3R1 / RFU, HNRNPA1 / Fold change vs veh, HNRNPA1 / RFU, RNF170 / Fold change vs veh, RNF170 / RFU, ZNF28 / Fold change vs veh, ZNF28 / RFU, RNGTT / Fold change vs veh, RNGTT / RFU, OGT / Fold change vs veh, OGT / RFU, BRD1 / Fold change vs veh, BRD1 / RFU, MARS / Fold change vs veh, MARS / RFU, ZNF655 / Fold change vs veh, ZNF655 / RFU, FAHD1 / Fold change vs veh, FAHD1 / RFU, BDP1 / Fold change vs veh, BDP1 / RFU, LRRCC1 / Fold change vs veh, LRRCC1 / RFU, ARID1A / Fold change vs veh, ARID1A / RFU, ZNF146 / Fold change vs veh, ZNF146 / RFU, ZNF330 / Fold change vs veh, ZNF330 / RFU, GPN3 / Fold change vs veh, GPN3 / RFU, C9orf123 / Fold change vs veh, C9orf123 / RFU, N4BP2L2 / Fold change vs veh, N4BP2L2 / RFU, ARFIP1 / Fold change vs veh, ARFIP1 / RFU, FAM179B / Fold change vs veh, FAM179B / RFU, BCL10 / Fold change vs veh, BCL10 / RFU, UHRF1BP1L / Fold change vs veh, UHRF1BP1L / RFU, BET1 / Fold change vs veh, BET1 / RFU, CNOT2 / Fold change vs veh, CNOT2 / RFU, ZNF268 / Fold change vs veh, ZNF268 / Fold change vs veh, ZNF507 / RFU, DGCR2 / Fold change vs veh, DGCR2 / RFU, WDSUB1 / Fold change vs veh, WDSUB1 / Fold change vs veh, HSP90B1 /// MIR3652 / RFU, ADSS / Fold change vs veh, ADSS / RFU, GK / Fold change vs veh, GK / RFU, ZNF148 / Fold change vs veh, ZNF148 / RFU, TAF9 / Fold change vs veh, TAF9 / RFU, SLC1A5 / Fold change vs veh, SLC1A5 / RFU, SLMO2 / Fold change vs veh, SLMO2 / RFU, ABCC4 / Fold change vs veh, ABCC4 / RFU, LOC101060439 /// RAP1B / Fold change vs veh, LOC101060439 /// RAP1B / RFU, RFX7 / Fold change vs veh, RFX7 / RFU, GTPBP10 / Fold change vs veh, GTPBP10 / RFU, CNEP1R1 / Fold change vs veh, CNEP1R1 / RFU, BIVM-ERCC5 /// ERCC5 / Fold change vs veh, BIVM-ERCC5 /// ERCC5 / RFU, ILF3 / Fold change vs veh, ILF3 / RFU 11762660_at / Fold change /veh 11762660_at / RFU VCAN (11757783_s_at) / Fold change /veh VCAN (11757783_s_at) / RFU DDX43 (11728927_at) / Fold change /veh DDX43 (11728927_at) / RFU KRT8 (11758188_x_at) / Fold change /veh KRT8 (11758188_x_at) / RFU NKD1 (11759106_at) / Fold change /veh NKD1 (11759106_at) / RFU SRD5A1 (11742802_a_at) / Fold change /veh SRD5A1 (11742802_a_at) / RFU TPSAB1 /// TPSB2 (11721975_s_at) / Fold change /veh TPSAB1 /// TPSB2 (11721975_s_at) / RFU GSTM3 (11746129_a_at) / Fold change /veh GSTM3 (11746129_a_at) / RFU IL23R (11737362_x_at) / Fold change /veh IL23R (11737362_x_at) / RFU TMEM51 (11727254_a_at) / Fold change /veh TMEM51 (11727254_a_at) / RFU PIWIL2 (11732686_x_at) / Fold change /veh PIWIL2 (11732686_x_at) / RFU ORM1 (11744905_x_at) / Fold change /veh ORM1 (11744905_x_at) / RFU CCDC152 (11743942_at) / Fold change /veh CCDC152 (11743942_at) / RFU ECM1 (11717891_a_at) / Fold change /veh ECM1 (11717891_a_at) / RFU IL23R (11748794_a_at) / Fold change /veh IL23R (11748794_a_at) / RFU TNFAIP8L3 (11732012_x_at) / Fold change /veh TNFAIP8L3 (11732012_x_at) / RFU MBOAT4 (11741988_at) / Fold change /veh MBOAT4 (11741988_at) / RFU 11764193_at / Fold change /veh 11764193_at / RFU TMEM53 (11763286_at) / Fold change /veh TMEM53 (11763286_at) / RFU MAGEB2 (11727129_at) / Fold change /veh MAGEB2 (11727129_at) / RFU TMEM200A (11744735_a_at) / Fold change /veh TMEM200A (11744735_a_at) / RFU CCDC152 (11751479_a_at) / Fold change /veh CCDC152 (11751479_a_at) / RFU FAM211A (11726209_a_at) / Fold change /veh FAM211A (11726209_a_at) / RFU RGS16 (11746705_a_at) / Fold change /veh RGS16 (11746705_a_at) / RFU VCAN (11755009_s_at) / Fold change /veh VCAN (11755009_s_at) / RFU RHOB (11743442_s_at) / Fold change /veh RHOB (11743442_s_at) / RFU RGS16 (11720943_a_at) / Fold change /veh RGS16 (11720943_a_at) / RFU RGS16 (11720944_at) / Fold change /veh RGS16 (11720944_at) / RFU, VPS4B / Fold change vs veh, VPS4B / RFU, CREB1 / Fold change vs veh, CREB1 / RFU, DNAJC13 / Fold change vs veh, DNAJC13 / RFU, GNAQ / Fold change vs veh, GNAQ / RFU, CDK5R1 / Fold change vs veh, CDK5R1 / RFU, ZRANB3 / Fold change vs veh, ZRANB3 / RFU, CUL4A / Fold change vs veh, CUL4A / RFU, CCNY / Fold change vs veh, CCNY / RFU, UFL1 / Fold change vs veh, UFL1 / RFU, COG3 / Fold change vs veh, COG3 / RFU, DIAPH2 / Fold change vs veh, DIAPH2 / RFU, SKA2 / Fold change vs veh, SKA2 / RFU, AFF3 / Fold change vs veh, AFF3 / RFU, LMF1 / Fold change vs veh, LMF1 / RFU, IPO11 / Fold change vs veh, IPO11 / RFU, DFFB / Fold change vs veh, DFFB / RFU, FOXP1 / Fold change vs veh, FOXP1 / RFU, CARD8 / Fold change vs veh, CARD8 / RFU, STRN3 / Fold change vs veh, STRN3 / RFU, ADK / Fold change vs veh, ADK / RFU, RASSF2 / Fold change vs veh, RASSF2 / RFU, WIPF1 / Fold change vs veh, WIPF1 / RFU, LARP1B / Fold change vs veh, LARP1B / RFU, RASA1 / Fold change vs veh, RASA1 / RFU, RB1 / Fold change vs veh, RB1 / RFU, PPFIA1 / Fold change vs veh, PPFIA1 / RFU, MAT2A / Fold change vs veh, MAT2A / RFU, CCT5 / Fold change vs veh, CCT5 / RFU, WDR92 / Fold change vs veh, WDR92 / RFU, CUX1 / Fold change vs veh, CUX1 / RFU, TTC7A / Fold change vs veh, TTC7A / RFU, TMEM135 / Fold change vs veh, TMEM135 / RFU, DEPTOR / Fold change vs veh, DEPTOR / RFU, CPM / Fold change vs veh, CPM / RFU, DNAJB6 / Fold change vs veh, DNAJB6 / RFU, CACNA2D3 / Fold change vs veh, CACNA2D3 / RFU, DTX4 / Fold change vs veh, DTX4 / RFU, TFCP2 / Fold change vs veh, TFCP2 / RFU, GMCL1 /// GMCL1P1 / Fold change vs veh, GMCL1 /// GMCL1P1 / RFU, AEBP2 / Fold change vs veh, AEBP2 / RFU, SNHG1 /// SNORD22 /// SNORD25 /// SNORD26 /// SNORD27 /// SNORD28 /// SNORD29 /// SNORD31 / Fold change vs veh, SNHG1 /// SNORD22 /// SNORD25 /// SNORD26 /// SNORD27 /// SNORD28 /// SNORD29 /// SNORD31 / Fold change (Aza/veh), C12orf56 (ProbeSet 11735607_a_at) / Fold change (ACY-1035/veh), C12orf56 (ProbeSet 11735607_a_at) / Fold change (Aza/veh), FGFR1OP (ProbeSet 11751329_s_at) / Fold change (ACY-1035/veh), FGFR1OP (ProbeSet 11751329_s_at) / Fold change (Aza/veh), VPS36 (ProbeSet 11739960_a_at) / Fold change (ACY-1035/veh), VPS36 (ProbeSet 11739960_a_at) / RFU SYPL1 (11715823_x_at) / Fold change /veh SYPL1 (11715823_x_at) / RFU IGFBP7 (11715501_s_at) / Fold change /veh IGFBP7 (11715501_s_at) / RFU REEP3 (11722064_at) / Fold change /veh REEP3 (11722064_at) / RFU IGLL1 (11728026_x_at) / Fold change /veh IGLL1 (11728026_x_at): dose or concentration left out as unconfirmed
Settings: MV-4-11 cells, 48 hours

Nc1ccc(-c2cccs2)cc1NC(=O)c1ccc2c(c1)cc(C1CC1)n2CCN1CCOCC1 [ACY-1035]
RFU NR4A2 (11747474_a_at): 22.98 RFU
